Assay [1] has as its target T1, HscPheRS (human cytosolic phenylalanyl-tRNA synthetase, alpha subunit) (Homo sapiens, UniProt Q9Y285).
T1 sequence (Q9Y285 2-508): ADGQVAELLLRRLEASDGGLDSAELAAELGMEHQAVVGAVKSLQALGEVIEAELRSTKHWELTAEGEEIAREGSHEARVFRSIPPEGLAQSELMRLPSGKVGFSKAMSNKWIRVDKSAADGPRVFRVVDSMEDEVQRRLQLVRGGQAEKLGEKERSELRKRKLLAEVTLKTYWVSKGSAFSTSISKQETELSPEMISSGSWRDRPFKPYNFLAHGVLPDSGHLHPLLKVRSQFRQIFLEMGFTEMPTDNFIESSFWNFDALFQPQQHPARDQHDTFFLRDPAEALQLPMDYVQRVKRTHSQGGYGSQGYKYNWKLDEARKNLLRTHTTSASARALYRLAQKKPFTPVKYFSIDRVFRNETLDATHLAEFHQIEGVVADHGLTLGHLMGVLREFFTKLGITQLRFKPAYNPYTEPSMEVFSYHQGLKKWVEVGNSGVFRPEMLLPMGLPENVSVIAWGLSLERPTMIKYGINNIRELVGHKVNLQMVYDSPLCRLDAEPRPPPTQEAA
T1 sequence (Q9NSD9 1-589 partner): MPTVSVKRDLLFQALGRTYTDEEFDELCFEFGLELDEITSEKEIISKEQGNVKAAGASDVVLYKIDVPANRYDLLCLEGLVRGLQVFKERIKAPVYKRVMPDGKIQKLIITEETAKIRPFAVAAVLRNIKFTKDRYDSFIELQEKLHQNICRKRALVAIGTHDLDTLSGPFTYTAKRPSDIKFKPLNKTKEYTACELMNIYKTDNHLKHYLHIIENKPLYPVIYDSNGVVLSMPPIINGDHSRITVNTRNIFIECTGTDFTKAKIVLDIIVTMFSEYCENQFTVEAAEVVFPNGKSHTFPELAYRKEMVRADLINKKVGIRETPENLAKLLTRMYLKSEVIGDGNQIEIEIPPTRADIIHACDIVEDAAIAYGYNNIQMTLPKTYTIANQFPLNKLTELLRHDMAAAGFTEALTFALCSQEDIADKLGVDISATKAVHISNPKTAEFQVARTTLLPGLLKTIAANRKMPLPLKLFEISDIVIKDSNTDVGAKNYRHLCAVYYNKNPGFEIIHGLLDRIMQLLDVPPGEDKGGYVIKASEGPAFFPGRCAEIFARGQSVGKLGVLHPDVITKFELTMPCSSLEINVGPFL
Nature of the assay: malachite green aminoacylation assay with purified enzyme. The format is biochemical. Conditions: read-out: BRD7929.

The target in assay [2] is T2, TgcPheRS (Toxoplasma gondii cytosolic phenylalanyl-tRNA synthetase, alpha subunit) (Toxoplasma gondii, UniProt A0A125YPN6+S8EZ50).
T2 sequence (A0A125YPN6 1-525): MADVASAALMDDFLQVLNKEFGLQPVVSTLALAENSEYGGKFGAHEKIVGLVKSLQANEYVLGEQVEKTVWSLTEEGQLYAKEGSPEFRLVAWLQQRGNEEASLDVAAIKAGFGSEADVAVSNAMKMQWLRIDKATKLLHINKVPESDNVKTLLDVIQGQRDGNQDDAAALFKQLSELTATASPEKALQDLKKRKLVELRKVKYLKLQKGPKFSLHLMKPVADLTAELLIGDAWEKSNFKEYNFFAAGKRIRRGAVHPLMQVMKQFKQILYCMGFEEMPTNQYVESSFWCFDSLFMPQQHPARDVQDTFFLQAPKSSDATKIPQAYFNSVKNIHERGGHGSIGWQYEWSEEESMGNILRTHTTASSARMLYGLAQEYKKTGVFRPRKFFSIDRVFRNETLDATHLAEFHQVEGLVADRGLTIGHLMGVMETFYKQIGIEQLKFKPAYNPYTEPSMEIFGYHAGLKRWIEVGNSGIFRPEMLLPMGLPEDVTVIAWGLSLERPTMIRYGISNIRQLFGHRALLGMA
T2 sequence (S8EZ50 1-675): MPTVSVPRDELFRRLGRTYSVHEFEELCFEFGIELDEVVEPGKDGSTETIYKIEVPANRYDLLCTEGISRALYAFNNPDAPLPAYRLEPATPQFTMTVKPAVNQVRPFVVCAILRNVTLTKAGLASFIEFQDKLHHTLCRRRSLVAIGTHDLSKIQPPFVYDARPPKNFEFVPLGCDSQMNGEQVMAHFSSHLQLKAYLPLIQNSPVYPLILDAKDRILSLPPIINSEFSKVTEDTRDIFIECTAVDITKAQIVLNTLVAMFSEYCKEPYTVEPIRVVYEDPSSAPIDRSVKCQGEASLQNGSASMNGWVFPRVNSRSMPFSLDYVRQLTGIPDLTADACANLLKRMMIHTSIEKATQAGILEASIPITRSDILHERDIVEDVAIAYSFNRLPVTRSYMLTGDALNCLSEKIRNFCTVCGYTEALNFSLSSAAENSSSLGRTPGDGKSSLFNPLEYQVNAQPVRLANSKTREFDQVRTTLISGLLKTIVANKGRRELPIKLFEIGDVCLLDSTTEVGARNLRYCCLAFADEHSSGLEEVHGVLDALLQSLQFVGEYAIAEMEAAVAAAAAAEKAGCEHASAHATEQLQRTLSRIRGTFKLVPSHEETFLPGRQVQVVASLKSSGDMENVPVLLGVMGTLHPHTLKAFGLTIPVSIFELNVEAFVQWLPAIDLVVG
Nature of the assay: thermal shift assay. The format is binding.

Assay [3] has as its target T1, HscPheRS (human cytosolic phenylalanyl-tRNA synthetase, alpha subunit). Nature of the assay: malachite green aminoacylation assay with purified enzyme. The class given is biochemical.
Assay [4] addresses T2, TgcPheRS (Toxoplasma gondii cytosolic phenylalanyl-tRNA synthetase, alpha subunit). The description is as above. The class given is biochemical.
Assay [5] addresses T1, HscPheRS (human cytosolic phenylalanyl-tRNA synthetase, alpha subunit). The description is as above. The format is biochemical. As to conditions: read-out: BRD2108.
Assay [6] deals with T2, TgcPheRS (Toxoplasma gondii cytosolic phenylalanyl-tRNA synthetase, alpha subunit). The assay is described as above. The format is biochemical. This is another data set of the same source.

pIC50: −log10 of the molar value. Read-outs that look alike come from different tables or passages of the source.

In the case of `COc1ccc(NC(=O)N2CCCCN3[C@H](CN(C)C)[C@H](c4ccc(C#Cc5ccccc5)cc4)[C@@H]3C2)cc1` [BRD7929], the pIC50 in assay [1] is 4.74. Also, the BRD7929 in assay [2] amounted to 11.6 °C.

For `COc1ccc(NC(=O)N2CCCN3CC[C@H](c4ccc(C#CC5=CCCCC5)cc4)[C@@H]3C2)cc1` [mCMY416], the pIC50 was 5.45 in assay [3] and 6.62 in assay [4].

Take BRD2108: the pIC50 in assay [5] is 4.81; in assay [6] it was 6.38.

The values are drawn from article PMC11299587 (ACS infectious diseases, 2024).
